Values of other authors in patent US20100203146A1, “INTERMITTENT DOSING STRATEGY FOR TREATING RHEUMATOID ARTHRITIS” (Callisto Pharmaceuticals, Inc., priority 2009, published 2010).

Columns and labels:
patients with RA = settings: often observed
RA patients = settings: at the administered doses
arthritis patients = settings: after a single dosage of 90 mg
[1] = after 14 or 28 days of daily oral dosing

In the case of `CN(Cc1cnc2nc(N)nc(N)c2n1)c1ccc(C(=O)N[C@@H](CCC(=O)O)C(=O)O)cc1` [Methotrexate], the “response (improvement)” value (patients with RA) is given as “less than 50%”.

For `CCCC1(CCC)CCC2(CCN(CCCN(CC)CC)C2)CC1` [Atiprimod, 2-(3-Diethylaminopropyl)-8,8-dipropyl-2-azaspiro[4,5]decane], the “area under the concentration-time curve (AUC)” value [1] is given as “lower than expected”, the “maximum concentration (Cmax)” value [1] is given as “lower than expected” and the half-life (in man) is given as about 60 days. For the same compound, the dose-limiting toxicity (RA patients) was “no observed dose-limiting toxicity”, the tolerability (RA patients; on drug for as long as one year) was “well-tolerated” and the patient-reported relief (arthritis patients) was “feeling better”.
